Marks after values point to notes of the source that are not given here.
How the values were obtained:
Format in all cases: in vivo, S.D. rats
rib fracture = experiment: Effect of promoting fracture healing in rib fracture-induced rat model (overall); conditions: compared with the results for N-hydroxy benzamidine compound above
Description: (§1) The benzamidine compound of Chemical Formula 1 was assayed for therapeutic effect on bone fracture in rat models subjected to rib fracture. Starting from 2 days after the induction of rib fracture, the administration of the benzamidine compound was continued for one, two, three and four weeks. Changes in (body weight, body weight gain, volume of bony callus, bone density, bone strength, and bone histopathology were observed.
(§2) A total of 80 S.D. rats (10-week-old, BioGenomics, Korea) was adapted to a laboratory environment for 12 days before being used in experiments. While being housed at a density of two or three to a plastic cage, the experimental animals were kept in a breeding room under controlled temperature (20 to 25° C.) and humidity (30 to 35%). Under light-dark cycles of 12 hours, the rats were allowed to have free access to feedstuff and tap water.
(§3) 10 mg and 50 mg of N-hydroxy-4-{5-[4-(5-isopropyl-2-methyl-1,3-thiazol-4-yl)phenoxy]pentoxy}benzamidine were completely dissolved in 5 ml of sterilized distilled water. The benzamidine compound in the solutions was orally administered at doses of 10 mg and 50 mg per kg of body weight once a day for one, two, three and four weeks from day 2 of the surgery. […]

[1] = Body weight gain in rib fracture-induced rat model
Description: as §1, §2
(§4) 10 mg and 50 mg of N-hydroxy-4-{5-[4-(5-isopropyl-2-methyl-1,3-thiazol-4-yl)phenoxy]pentoxy}benzamidine were completely dissolved in 5 ml of sterilized distilled water. The benzamidine compound in the solutions was orally administered at doses of 10 mg and 50 mg per kg of body weight once a day for one, two, three and four weeks from day 2 of the surgery.
(§5) All the experimental animals were anesthetized with ketamine hydrochloride and xylazine hydrochloride and underwent an operation for inducing a fracture on the 8th and the 9th rib. In this regard, the ribs were transversely cut with operation scissors. After the fracture induction, the fractured ribs were assembled to be aligned with each other and the wound cavity was closed through skin suture.
All the experimental animals were measured for body weight one day before the operation, the day of the operation, the day of administration, and 7, 14, 21 and 28 days after administration. In order to reduce the difference among individuals due to feedstuff intake, all experimental animals were starved for 18 hours or more on the day of the measurement. Also, to minimize the difference of change in body weight of individual animals, body weight gain during time periods from the day of the operation to 7, 14, 21 and 28 days after the administration were calculated.

[2] = tested on: bony callus formed around the fractured 8th and 9th ribs; experiment: Volume of bony callus in rib fracture-induced rat model
Description: as §1, §2, §4, §5
On the sacrificial day, the bony callus formed around the fractured 8th and 9th ribs was separated from adjacent tissues and taken out of all experimental animals. The enucleated bony calluses were measured for long and short diameters in millimeters. The volume of the bony callus was calculated from the measurements using the following mathematic formula 1. Volume of Bony callus=½×(a×b^2) Formula 1
a: long diameter of bony callus,
b: short diameter of bony callus.

bony callus [3] = experiment: Histomorphometry of bony callus (connective, cartilage, bone tissue content), 8th rib
Description: as §1, §2, §4, §5
(§6) The 8th rib enucleated after the fracture induction was fixed in 10% neutral formalin, followed by decalcification by changing a decalcification solution (2.24% formic acid, 0.5N […]) with fresh solution once a day for five days. After completion of the decalcification, the rib was embedded in paraffin. The paraffin-embedded tissue was sliced at a thickness of 3 to 4 μm, stained with hematoxylin-eosin or Masson's trichrome and observed through an optical microscope.
From the rib tissue specimen prepared above, the amounts of the connective tissue, cartilage and bone tissue in the bony callus were examined using an Analysis Image processing system (SIS Germany) and are represented as percentages in Tables 3 to 5, below.

[4] = tested on: osteoclasts in the bony callus; experiment: Number of osteoclasts in the bony callus, 8th rib
Description: as §1, §2, §4, §5, §6
Furthermore, the number of osteoclasts in the bony callus, particularly, within an area of (200 μm)^2 on the fracture surface at which endochondral ossification commenced, was measured using an Analysis Image processing system (SIS Germany).

bony callus [5] = experiment: Bone density of bony callus (DEXA), 9th rib
Description: as §1, §2, §4, §5
The 9th rib enucleated after the fracture induction was measured for the bone density around the bony callus using dual-energy x-ray absorptiometry (DEXA, PXImus; Lunar Medison, Wis.) and the bone density is calculated in mg/cm^2 in Table 7.

bony callus [6] = experiment: Bone strength of bony callus (three point bending test), 9th rib
Description: as §1, §2, §4, §5
The bone strength around the fracture face at which a bony callus was formed in the 9th rib enucleated after the fracture induction was determined from three point bending tests using an Instron material testing system (Instron 6022; Instron, USA; speed 20 mm/min).

bony callus [7] = experiment: Histopathological observation of 8th rib (FIG. 1); conditions: all administration time periods; versus non-treated group; dose-dependent
Description: FIG. 1 an optical microphotograph showing sliced tissue specimens of the 8th rib extracted after fracture induction, stained with Masson's trichrome.
as §1, §2, §3

[8] = 10 mg/kg oral once a day, 7 days after administration
[9] = 10 mg/kg oral once a day, 14 days after administration
[10] = 10 mg/kg oral once a day, 21 days after administration
[11] = 10 mg/kg oral once a day, 28 days after administration
[12] = 50 mg/kg oral once a day, 7 days after administration
[13] = 50 mg/kg oral once a day, 14 days after administration
[14] = 50 mg/kg oral once a day, 21 days after administration
[15] = 50 mg/kg oral once a day, 28 days after administration

Cc1nc(-c2ccc(OCCCCCOc3ccc(C(=N)N)cc3)cc2)c(C(C)C)s1 [4-{5-[4-(5-isopropyl-2-methyl-1,3-thiazol-4-yl)phenoxy]pentoxy}benzamidine]
Healing effects on bone fracture (rib fracture): same healing effects as above

Cc1nc(-c2ccc(OCCCCCOc3ccc(C(=N)NO)cc3)cc2)c(C(C)C)s1 [Cpd. Of Chemical Formula 1, N-hydroxy-4-{5-[4-(5-isopropyl-2-methyl-1,3-thiazol-4-yl)phenoxy]pentoxy}benzamidine]
Changes in Body Weight Gain [1, 8]: 16.00 ± 13.55 g | Changes in Body Weight Gain [1, 9]: 44.40 ± 14.54 g | Changes in Body Weight Gain [1, 10]: 46.40 ± 22.39 g | Changes in Body Weight Gain [1, 11]: 61.20 ± 22.81 g | Changes in Body Weight Gain [1, 12]: 14.80 ± 08.81 g | Changes in Body Weight Gain [1, 13]: 36.82 ± 29.52 g | Changes in Body Weight Gain [1, 14]: 68.60 ± 16.65 g | Changes in Body Weight Gain [1, 15]: 84.40 ± 23.37 g | Changes in Bony Callus Volume [2, 8]: 12.84 ± 4.42* mm^3 | Changes in Bony Callus Volume [2, 9]: 5.47 ± 1.81* mm^3 | Changes in Bony Callus Volume [2, 10]: 4.73 ± 2.13* mm^3 | Changes in Bony Callus Volume [2, 11]: 3.96 ± 2.41* mm^3 | Changes in Bony Callus Volume [2, 12]: 8.62 ± 3.43* mm^3 | Changes in Bony Callus Volume [2, 13]: 4.36 ± 1.44* mm^3 | Changes in Bony Callus Volume [2, 14]: 3.84 ± 1.86* mm^3 | Changes in Bony Callus Volume [2, 15]: 3.37 ± 0.79* mm^3 | Changes in Content of Bone Tissue in Bony Callus (bony callus [3]; [8]): 37.95 ± 6.44 % relative to total bony callus | Changes in Content of Cartilage Tissue in Bony Callus (bony callus [3]; [8]): 24.79 ± 5.43 % relative to total bony callus | Changes in Content of Connective Tissue of Bony Callus (bony callus [3]; [8]): 33.19 ± 3.06 % relative to total bony callus | Changes in Content of Bone Tissue in Bony Callus (bony callus [3]; [9]): 54.31 ± 9.50 % relative to total bony callus | Changes in Content of Cartilage Tissue in Bony Callus (bony callus [3]; [9]): 23.77 ± 3.44 % relative to total bony callus | Changes in Content of Connective Tissue of Bony Callus (bony callus [3]; [9]): 6.28 ± 0.72 % relative to total bony callus | Changes in Content of Bone Tissue in Bony Callus (bony callus [3]; [10]): 66.71 ± 5.41 % relative to total bony callus | Changes in Content of Cartilage Tissue in Bony Callus (bony callus [3]; [10]): 18.51 ± 2.29 % relative to total bony callus | Changes in Content of Connective Tissue of Bony Callus (bony callus [3]; [10]): 5.55 ± 1.42 % relative to total bony callus | Changes in Content of Bone Tissue in Bony Callus (bony callus [3]; [11]): 83.30 ± 4.43 % relative to total bony callus | Changes in Content of Cartilage Tissue in Bony Callus (bony callus [3]; [11]): 6.59 ± 2.02 % relative to total bony callus | Changes in Content of Connective Tissue of Bony Callus (bony callus [3]; [11]): 3.20 ± 0.89 % relative to total bony callus | Changes in Content of Bone Tissue in Bony Callus (bony callus [3]; [12]): 39.24 ± 14.12 % relative to total bony callus | Changes in Content of Cartilage Tissue in Bony Callus (bony callus [3]; [12]): 22.42 ± 5.45 % relative to total bony callus | Changes in Content of Connective Tissue of Bony Callus (bony callus [3]; [12]): 29.51 ± 5.70 % relative to total bony callus | Changes in Content of Bone Tissue in Bony Callus (bony callus [3]; [13]): 55.94 ± 8.38 % relative to total bony callus | Changes in Content of Cartilage Tissue in Bony Callus (bony callus [3]; [13]): 20.09 ± 6.38 % relative to total bony callus | Changes in Content of Connective Tissue of Bony Callus (bony callus [3]; [13]): 6.06 ± 0.44 % relative to total bony callus | Changes in Content of Bone Tissue in Bony Callus (bony callus [3]; [14]): 74.07 ± 8.43 % relative to total bony callus | Changes in Content of Cartilage Tissue in Bony Callus (bony callus [3]; [14]): 11.49 ± 2.31 % relative to total bony callus | Changes in Content of Connective Tissue of Bony Callus (bony callus [3]; [14]): 3.58 ± 0.62 % relative to total bony callus | Changes in Content of Bone Tissue in Bony Callus (bony callus [3]; [15]): 87.27 ± 8.97 % relative to total bony callus | Changes in Content of Cartilage Tissue in Bony Callus (bony callus [3]; [15]): 5.37 ± 1.38 % relative to total bony callus | Changes in Content of Connective Tissue of Bony Callus (bony callus [3]; [15]): 2.59 ± 0.52 % relative to total bony callus | Changes in Population of Osteoclasts within Bony Callus [4, 8]: 43.80 ± 3.83 Counts present within (200 μm)^2 of bony callus | Changes in Population of Osteoclasts within Bony Callus [4, 9]: 50.60 ± 2.70 Counts present within (200 μm)^2 of bony callus | Changes in Population of Osteoclasts within Bony Callus [4, 10]: 31.00 ± 6.67 Counts present within (200 μm)^2 of bony callus | Changes in Population of Osteoclasts within Bony Callus [4, 11]: 21.60 ± 3.58 Counts present within (200 μm)^2 of bony callus | Changes in Population of Osteoclasts within Bony Callus [4, 12]: 42.60 ± 4.62 Counts present within (200 μm)^2 of bony callus | Changes in Population of Osteoclasts within Bony Callus [4, 13]: 53.60 ± 2.41 Counts present within (200 μm)^2 of bony callus | Changes in Population of Osteoclasts within Bony Callus [4, 14]: 22.20 ± 3.03 Counts present within (200 μm)^2 of bony callus | Changes in Population of Osteoclasts within Bony Callus [4, 15]: 17.60 ± 2.97 Counts present within (200 μm)^2 of bony callus | Changes in Bone Density of Bony Callus (bony callus [5]; [8]): 0.24 ± 0.04 mg/cm^2 | Changes in Bone Density of Bony Callus (bony callus [5]; [9]): 0.32 ± 0.04 mg/cm^2 | Changes in Bone Density of Bony Callus (bony callus [5]; [10]): 0.39 ± 0.04 mg/cm^2 | Changes in Bone Density of Bony Callus (bony callus [5]; [11]): 0.55 ± 0.06 mg/cm^2 | Changes in Bone Density of Bony Callus (bony callus [5]; [12]): 0.24 ± 0.03 mg/cm^2 | Changes in Bone Density of Bony Callus (bony callus [5]; [13]): 0.32 ± 0.04 mg/cm^2 | Changes in Bone Density of Bony Callus (bony callus [5]; [14]): 0.44 ± 0.07 mg/cm^2 | Changes in Bone Density of Bony Callus (bony callus [5]; [15]): 0.57 ± 0.04 mg/cm^2 | Changes in bone strength of bony callus (bony callus [6]; [8]): 2.15 ± 0.42 Nos. of Impact applied | Changes in bone strength of bony callus (bony callus [6]; [9]): 2.57 ± 0.65 Nos. of Impact applied | Changes in bone strength of bony callus (bony callus [6]; [10]): 3.10 ± 0.40 Nos. of Impact applied | Changes in bone strength of bony callus (bony callus [6]; [11]): 3.26 ± 0.43 Nos. of Impact applied | Changes in bone strength of bony callus (bony callus [6]; [12]): 2.35 ± 0.47 Nos. of Impact applied | Changes in bone strength of bony callus (bony callus [6]; [13]): 2.84 ± 0.34 Nos. of Impact applied | Changes in bone strength of bony callus (bony callus [6]; [14]): 3.23 ± 0.35 Nos. of Impact applied | Changes in bone strength of bony callus (bony callus [6]; [15]): 3.35 ± 0.38 Nos. of Impact applied | Bone tissue in bony callus, histopathological observation (FIG. 1) (bony callus [7]): increased bone tissue in bony callus in all administration time periods

Cc1nc(-c2ccc(OCCCCCOc3ccc(C(=N)NO)cc3)cc2)c(C(C)C)s1 [N-hydroxy-4-{5-[4-(5-isopropyl-2-methyl-1,3-thiazol-4-yl)phenoxy]pentoxy}benzamidine]
Healing effects on bone fracture (rib fracture): same healing effects as above

From patent US7923443B2, “Pharmaceutical composition for the treatment of bone fracture” (Dong Wha Pharmaceutical Co., Ltd., priority 2004, dated 2011)
